The data set deals with TRPV1 (Homo sapiens, UniProt Q8NER1). The data set can be described thus: Determination of TRPV1 agonistic activity (MTT cell viability of 293 T-VR1 cells). Here is the method:
2×10^4 293 T-VR1 cells (or parentale 293T cells as control) are cultivated in 96-well microtiter plates (Costar, Cambridge, Mass.) in 200 μL Dulbecco's Modified Eagle's Medium (DMEM), which also contains 10% foetal calf serum and 1% antibiotics (penicillin/streptomycin). The cells are incubated for 6 h with the test substances or the controls (capsaicin, TRPV1 agonist (1 μM); capsazepine, TRPV1 antagonist (10 μM); or capsaicin (1 μM) and capsazepine (10 μM)). Then, cell viability is determined.
The cytotoxic effect of the test substances was determined using the MTT (3-[4,5-dimethylthiazol-2-yl]-2,5-diphenyltetrazolium bromide) assay method. For this, 50 μL of a solution of MTT in DMEM (5 mg/mL) were added to each well. These were then incubated in the dark for 4 h at 37° C. The reaction was stopped, the residue was removed and 100 μL DMSO were added to each well. Incubation continued for 10 min with gentle shaking. Then the absorption at 550 nm was measured with a TECAN GENios Pro Plate Reader (Tecan Group Ltd., Switzerland). […] The determination was performed in triplicate.

Usually cell viability stands for a read-out of living cells in per cent, often relative to untreated cells.

Sequence of TRPV1 (Q8NER1 whole entry, species assumed): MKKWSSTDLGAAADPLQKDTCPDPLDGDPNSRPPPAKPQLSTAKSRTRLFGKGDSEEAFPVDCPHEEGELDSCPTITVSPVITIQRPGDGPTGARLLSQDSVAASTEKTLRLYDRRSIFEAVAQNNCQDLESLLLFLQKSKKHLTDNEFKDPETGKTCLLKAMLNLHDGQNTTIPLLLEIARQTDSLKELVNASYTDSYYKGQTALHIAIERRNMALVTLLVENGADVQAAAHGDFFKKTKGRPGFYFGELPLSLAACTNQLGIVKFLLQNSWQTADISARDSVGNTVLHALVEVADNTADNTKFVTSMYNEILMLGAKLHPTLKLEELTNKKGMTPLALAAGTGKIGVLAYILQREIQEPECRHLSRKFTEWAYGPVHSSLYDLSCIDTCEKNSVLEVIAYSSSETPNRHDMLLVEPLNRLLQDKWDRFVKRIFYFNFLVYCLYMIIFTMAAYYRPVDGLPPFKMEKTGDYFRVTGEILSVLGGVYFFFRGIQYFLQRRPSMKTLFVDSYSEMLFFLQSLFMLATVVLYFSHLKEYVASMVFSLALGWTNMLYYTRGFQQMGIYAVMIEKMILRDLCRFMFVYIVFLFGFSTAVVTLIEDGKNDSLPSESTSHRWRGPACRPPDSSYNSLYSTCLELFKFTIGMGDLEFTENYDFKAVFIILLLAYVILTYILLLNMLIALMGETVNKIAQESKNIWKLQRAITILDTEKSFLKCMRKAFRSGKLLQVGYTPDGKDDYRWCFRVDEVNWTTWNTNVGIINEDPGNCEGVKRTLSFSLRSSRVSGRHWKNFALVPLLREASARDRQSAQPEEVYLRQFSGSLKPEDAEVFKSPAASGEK

With `COc1cc(CNC(=O)CCCC/C=C/C(C)C)ccc1O` [capsaicin], the cell viability turned out to be 54.9% (FIG. 1 experiment, capsaicin 1 μM, 293 T-VR1 cells, 6 h, percentage of vehicle control) and 70.6% (FIG. 2 experiment, capsaicin positive control).
On to `Oc1cc2c(cc1O)CN(C(=S)NCCc1ccc(Cl)cc1)CCC2` [capsazepine], for which the cell viability is 101.3% (FIG. 1 experiment, capsaicin (1 μM) and capsazepine (10 μM) together); 104.4% (FIG. 2 experiment, capsaicin together with capsazepine); 106.1% (human, 6 h, 10 μM).

Values taken from patent publication US10952945B2, “Formulations containing an extract of Echinacea and linoleic acid derivatives” (DR. AUGUST WOLFF GMBH & CO. KG ARZNEIMITTEL, priority 2015, dated 2021).
